Reference: patent US10493044B1, “Method for treating developmental retinal vascular disorder” (priority 2018, dated 2019)
Values joined by “and” are separate entries in the source; they are usually repeats but may differ in a detail not shown here. Equal entries are not always repeated.

Columns and labels:
[1] = test system: norrie disease protein (NDP); test: Western blotting of NDP relative to β-actin in RGC-5 cells subjected to OGD; format: cell-based, mouse
Protocol: Moscatilin was purchased from EMMX Biotechnology (EN10271, CA, USA) and dissolved in DMSO (vehicle). […] Moscatilin (0.1 μM) was administered at 1 hour pre-OGD, during OGD, or at 1 hour post-OGD. Its therapeutic effects were evaluated by MTT and Western blotting assays.
(§1) The RCG-5 cell lines were not transformed rat RGCs but, rather, mouse retinal neuronal precursors. OGDs were defined as cells that were maintained in glucose-free DMEM (Thermo Fisher Scientific Inc.) at 37° C. under the hypoxic (ischemic-like) conditions, namely 1% O2 (monitored by an analyzer; Penguin Incubator: control range 1-89%; Astec Company, Kukuoka, Japan), 94% N2 and 5% CO2. There were different groups, consisting of cells that received (i) DMSO in DMEM (control cells; DMSO+DMEM), (ii) DMSO followed by OGD (DMSO+OGD), (iii) OGD and administration of moscatilin (0.1 μM in DMEM) at 1 hour pre-OGD (Pre-OGD Mos 0.1 μM), (iv) during OGD (During OGD Mos 0.1 μM), or (v) at 1 hour post-OGD (Post-OGD Mos 0.1 μM). At the end of the 1 day OGD period, the cell cultures were returned to fresh DMEM for another 24 h. The MTT (viability) and the Western blotting assays (NDP) were then performed.
Retinal/cellular samples were retrieved and sonicated in lysis buffer, namely mammalian protein extraction reagent (MPER; HyCell). Identical quantities of denatured proteins (40 μg/30 μl/well) then underwent sodium dodecyl sulfate polyacrylamide gel electrophoresis (SDS-PAGE; Bio-Rad) as described previously. After separation, the protein bands were transferred to a polyvinylidene difluoride (PVDF) membrane and then immersed for 12 hours at 4° C. with the following primary antibodies, mouse monoclonal anti-β-actin antibody (AC-15; 1:2,000; ab6276)/anti-HIF-1α antibody (1:200; H1alpha67-ChIP Grade; Abcam Inc.), rabbit polyclonal anti-VEGF antibody (A-20; 1:200; sc-152)/anti-PKM2 antibody (1:500; ab38237), or rabbit monoclonal anti-RBP2 antibody (ab177486; 1:1000; Abcam Inc.). […] The amount of each protein was then evaluated by scanning densitometry.

[2] = test system: two cell lines; conditions: cited from earlier work
[3] = test system: RGC-5 cells; test: MTT cell viability assay of RGC-5 cells subjected to oxygen glucose deprivation (OGD); format: cell-based, mouse; conditions: Mus musculus
Protocol: (§2) Moscatilin was purchased from EMMX Biotechnology (EN10271, CA, USA) and dissolved in DMSO (vehicle). […] […] Its therapeutic effects were evaluated by MTT and Western blotting assays.
as §1, with “([…]),” for “(iii) OGD and administration of moscatilin (0.1 μM in DMEM) at 1 hour pre-OGD (Pre-OGD Mos 0.1 μM),”
(§3) Mitochondria NADPH dependent oxidoreductases were capable of reducing MTT to form formazan. Therefore, an increase in the amount of dark purple formazan corresponded to greater cell viability. MTT (0.5 mg/mL; Sigma-Aldrich) was added and allowed to react for 3 hr at 37° C. to the 96-well plates containing the original 100 μL of cells. The reduced MTT was then solubilized by adding 100 μL DMSO. After agitation of the plates, the OD of the solubilized formazan was measured using an ELISA reader (Synergy H1 Multi-Mode Reader BioTek Instruments) at 562 nm. Cell viability was expressed as OD values relative to the control (100%).

[4] = as above; format: cell-based, mouse; conditions: mouse, RGC-5 cells subjected to oxygen glucose deprivation (OGD), cytotoxic effect
Protocol: as §2
as §1, with “([…]),” for “(iii) OGD and administration of moscatilin (0.1 μM in DMEM) at 1 hour pre-OGD (Pre-OGD Mos 0.1 μM),”
as §3

[5] = test system: HIF-1α; test: Western blot of retinal HIF-1α after I/R; format: in vivo, rat; conditions: intravitreal 1 day pre-ischemia: 10 μM/5 μl JIB-04, 4 μM/5 μl shikonin, 125 μg/5 μl avastin; Vehicle+I/R = 100%
Protocol: (§4) DNL was purchased from the Ko Da Company (Taipei, Taiwan) and dissolved in ddH2O. For the electrophysiological, immuohistochemical and molecular biological studies, drug administration was carried out for seven days and involved various groups, namely a post-ischemia administration (daily high dose of DNL at 1 g/kg/day, I/R+DNL1.0), or pre-ischemia administration (daily high dose of DNL, DNL1.0+I/R; low dose of DNL at 0.5 g/kg/day, DNL0.5+I/R). The rats in the vehicle group that were subjected to ischemia were either post-administered (I/R+Vehicle) or pre-administered with a similar volume of vehicle (Vehicle+I/R) as the DNL group.
(§5) As compared with the Sham, Vehicle+I/R or DNL1.0+I/R group, the ischemic eyes of other groups received intravitreal injections using a 30-gauge needle connected to a 25 μl syringe after the pupil was dilated with 1% tropicamide and 2.5% phenylephrine. […]
(§6) Retinal/cellular samples were retrieved and sonicated in lysis buffer, namely mammalian protein extraction reagent (MPER; HyCell). Identical quantities of denatured proteins (40 μg/30 μl/well) then underwent sodium dodecyl sulfate polyacrylamide gel electrophoresis (SDS-PAGE; Bio-Rad) as described previously. […] The amount of each protein was then evaluated by scanning densitometry.

[6] = test system: VEGF; test: Western blot of retinal VEGF after I/R; format: in vivo, rat; conditions: intravitreal 1 day pre-ischemia: 10 μM/5 μl JIB-04, 4 μM/5 μl shikonin, 125 μg/5 μl avastin; Vehicle+I/R = 100%
Protocol: as §4
(§7) As compared with the Sham, Vehicle+I/R or DNL1.0+I/R group, the ischemic eyes of other groups received intravitreal injections using a 30-gauge needle connected to a 25 μl syringe after the pupil was dilated with 1% tropicamide and 2.5% phenylephrine. Specifically, the ischemic eyes received 1 day pre-ischemia intravitreal administrations of various inhibitors/antibodies, namely 10 μM/5 μl JIB-04 (Sigma-Aldrich), 4 μM/5 μl Shikonin (S7576; Sigma-Aldrich), 125 μg/5 μl Avastin (Hoffmann-La Roche), or 200 μg/5 μl Eylea (Regeneron Pharmaceuticals Inc.). One day after retinal I/R and administration of relevant compounds or after a sham procedure, the animals were sacrificed. Retinal samples were collected in order to measure the protein levels of […], RBP2, PKM2, VEGF-A and PLGF by the western blot assay or ELISA.
(§8) Ischemia induction. Each rat was anesthetized with the above anesthetics and placed in a stereotaxic frame. […]
as §6

[7] = test system: PKM2; test: Western blot of retinal PKM2 after I/R; format: in vivo, rat; conditions: intravitreal 1 day pre-ischemia: 10 μM/5 μl JIB-04, 4 μM/5 μl shikonin, 125 μg/5 μl avastin; Vehicle+I/R = 100%
Protocol: as §4, §7, §8, §6

[8] = test system: RBP2; test: Western blot of retinal RBP2 after I/R; format: in vivo, rat; conditions: intravitreal 1 day pre-ischemia: 10 μM/5 μl JIB-04, 4 μM/5 μl shikonin, 125 μg/5 μl avastin; Vehicle+I/R = 100%
Protocol: as §4, §7, §8, §6

[9] = test system: placental growth factor (PLGF); test: ELISA of retinal PLGF after I/R; format: in vivo, rat; conditions: pre-ischemia intravitreal 200 μg/5 μl Eylea (Eylea+I/R); Vehicle+I/R 39.53±5.25
Protocol: as §4, §5
The level of PLGF was determined using ELISA. […] The total protein in each sample was determined using a bicinchoninic acid protein kit (Thermo Fisher Scientific). The PLGF levels in the supernatant were measured using a PLGF ELISA kit (CSB-E07400r; Cusabio Life Scince) accordingly. […] The maximum absorbance (OD) at 450 nm was detected immediately using a microplate reader (Synergy H1 Hybrid Multi-Mode Reader, Biotek ELx800). […]

COc1cc(CCc2cc(OC)c(O)c(OC)c2)ccc1O [moscatilin]
amount of NDP relative to β-actin ([1]; 0.1 μM moscatilin 1 hour pre-OGD, DMSO+DMEM = 100%, DMSO+OGD 44.54±3.15%): 108.38±29.33%
amount of NDP relative to β-actin ([1]; 0.1 μM moscatilin 1 h post-OGD): 54.36±3.88%
amount of NDP relative to β-actin ([1]; 0.1 μM moscatilin during OGD): 48.99±9.89%
IC50 ([2]; 24 h, two cell lines, respectively, previous reports, read-out: IC50 of reduced cell viability): 7 µM and 6.7 µM
toxicity to cells ([2]; concentrations equal to or less than 1 μM, previous researches): non-toxic
viability at 0.1 µM ([3]; RGC5, 0.1 μM moscatilin during OGD, P=0.31 vs DMSO+OGD): 56 ± 4.08%
viability at 1 µM ([3]; RGC5, 1 μM moscatilin pre-OGD, n=4): 66.4 ± 9.35%
viability at 0.1 µM ([3]; RGC5, 1 h, 0.1 μM moscatilin at 1 hour post-OGD, P=0.41 vs DMSO+OGD): 52.6 ± 4.16%
viability at 0.1 µM ([3]; RGC5, 1 h, 0.1 μM moscatilin at 1 hour pre-OGD, relative to DMSO+DMEM control (100%), DMSO+OGD 53.66±2.67%): 62.6 ± 4.35%
viability at 10 μM ([4]; 10 μM moscatilin pre-OGD, n=4): 15.4 ± 3.09%
viability at 100 μM ([4]; 100 μM moscatilin pre-OGD, n=1): 12.5%

Clc1ccc(N/N=C(\c2ccccc2)c2ccccn2)nc1 [JIB-04]
level of HIF-1α (ratio to β-actin) [5]: 53.98±2.29%
level of VEGF (ratio to β-actin) [6]: 27.82±1.21%
level of PKM2 (ratio to β-actin) [7]: 60.36±7.59%
level of RBP2 (ratio to β-actin) [8]: 5.83±1.43%

Eylea: VEGF trap/anti-PLGF (Regeneron Pharmaceuticals Inc.)
level of PLGF [9]: 6.44 ± 0.60 pg/mL

avastin: VEGF antibody (Hoffmann-La Roche)
level of VEGF (ratio to β-actin) [6]: 5.38±2.51%
level of PKM2 (ratio to β-actin) [7]: 84.44±4.53%
level of RBP2 (ratio to β-actin) [8]: 78.35±3.29%

CC(C)=CC[C@@H](O)C1=CC(=O)c2c(O)ccc(O)c2C1=O [shikonin]
level of HIF-1α (ratio to β-actin) [5]: 42.65±0.76%
level of VEGF (ratio to β-actin) [6]: 57.55±9.40%
level of PKM2 (ratio to β-actin) [7]: 44.94±10.91%
level of RBP2 (ratio to β-actin) [8]: 3.40±0.23%
